Converted amounts (≈) assume the structure as drawn.
Legend:
[1] = test system: Mycobacterium tuberculosis; test: Inhibition against Mycobacterium tuberculosis; assay type: functional
[2] = test system: Mycobacterium tuberculosis; test: Inhibition against Mycobacterium tuberculosis at 6.25 ug/mL; assay type: functional

For `CC(=O)OC1CC(c2ccc(F)cc2)N(c2ccccc2)O1` (racemic), which MIC [1] is on record?
Its MIC is 6.25 µg/mL (≈ 20.7 µM).

And the inhibition at 6.25 µg/mL [2]?
Its inhibition at 6.25 µg/mL is 78%.
